In patent US12281079B2, “Quinoline derivatives, processes for their preparation and uses thereof for the treatment of cancer” (Lead Discovery Center GmbH, priority 2019, dated 2025) one finds IC50 data, which are given here for 25 compounds.

The target of assay [1] is mitochondrial RNA polymerase (POLRMT) (Mus musculus, UniProt Q8BKF1). Description: Homogeneous TR-FRET assay for mitochondrial transcription activity. It counts as biochemical. The settings on record: homogeneous TR-FRET assay according to Example 4. An outline of the steps: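 Read-out is TR-FRET (ex 340, em 665 nm) from two adjacent labelled DNA probes annealing to the 407 bp transcript after EDTA/700 mM NaCl stop. Reaction: murine POLRMT, TFAM, TFB2M and LSP plasmid template, compound 10 μM or serial dilution, 10 min rt preincubation, 500 μM each nucleotide, 2 h rt.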
A general note: Time-resolved FRET reads energy transfer from a long-lived donor to a nearby acceptor.

Assay [2] relates to mitochondrial transcription (7S RNA) in HeLa cells. Put plainly: Quantitative real time-PCR assay of inhibition of mitochondrial transcription (7S RNA) in HeLa cells. It is filed as cell-based. The settings on record: Homo sapiens, 4 h compound incubation, according to Example 5, read-out: cellular qPCR assay. As to the method:
Quantitative real-time PCR (qRT-PCR), based on the TaqMan™ (Thermo Fisher Scientific, Waltham Mass.) technology, was carried out essentially as described in Held et al. (1996). HeLa cells were plated one day before compound treatment in RPMI medium supplemented with 10% Fetal Calf Serum and 2 mM L-glutamine. Cells were incubated with dilution series of compounds or vehicle (DMSO) for 4 h, prior to harvest and extraction of the RNA using the RNeasy Mini Kit (Qiagen, Hilden D), according to the manufacturer's instructions. RNA concentrations were measured spectroscopically, using a NanoDrop-2000 (Thermo Fisher Scientific, Waltham Mass.) and normalized prior to cDNA synthesis, using a ‘High-Capacity cDNA Reverse Transcription Kit’ (Thermo Fisher Scientific, Waltham Mass.). qRT-PCR was carried out using the ‘TaqMan Fast Advance Master Mix’ (Thermo Fisher Scientific, Waltham Mass.) on a 7500 Fast Real-Time PCR machine (Applied Biosystems, Foster City Calif.)
For these measurements, three genes were used to compare the effect of the scrutinized compounds in relation to their concentration. The POLRMT-gene was used to detect potential influences on nuclear transcription. Mitochondrial transcription in vivo was monitored by measurements 7S RNA. The TBP (TATA-box binding protein) gene was employed as the control (housekeeping gene) during qRT-PCR. The short-lived mitochondrial 7S RNA, which is not post-transcriptionally stabilized, allowed us to monitor rapid changes in mitochondrial transcription activity following compound addition. Biological triplicates were analyzed using the comparative CT Method (ΔΔCt) method (Bubner and Baldwin, 2004) and reported as Rq % values (Rq=Relative quantification=2−ΔΔCt).
For orientation: Real-time PCR tracks product formation cycle by cycle.

Sequence of mitochondrial RNA polymerase (POLRMT) (Q8BKF1 42-1207): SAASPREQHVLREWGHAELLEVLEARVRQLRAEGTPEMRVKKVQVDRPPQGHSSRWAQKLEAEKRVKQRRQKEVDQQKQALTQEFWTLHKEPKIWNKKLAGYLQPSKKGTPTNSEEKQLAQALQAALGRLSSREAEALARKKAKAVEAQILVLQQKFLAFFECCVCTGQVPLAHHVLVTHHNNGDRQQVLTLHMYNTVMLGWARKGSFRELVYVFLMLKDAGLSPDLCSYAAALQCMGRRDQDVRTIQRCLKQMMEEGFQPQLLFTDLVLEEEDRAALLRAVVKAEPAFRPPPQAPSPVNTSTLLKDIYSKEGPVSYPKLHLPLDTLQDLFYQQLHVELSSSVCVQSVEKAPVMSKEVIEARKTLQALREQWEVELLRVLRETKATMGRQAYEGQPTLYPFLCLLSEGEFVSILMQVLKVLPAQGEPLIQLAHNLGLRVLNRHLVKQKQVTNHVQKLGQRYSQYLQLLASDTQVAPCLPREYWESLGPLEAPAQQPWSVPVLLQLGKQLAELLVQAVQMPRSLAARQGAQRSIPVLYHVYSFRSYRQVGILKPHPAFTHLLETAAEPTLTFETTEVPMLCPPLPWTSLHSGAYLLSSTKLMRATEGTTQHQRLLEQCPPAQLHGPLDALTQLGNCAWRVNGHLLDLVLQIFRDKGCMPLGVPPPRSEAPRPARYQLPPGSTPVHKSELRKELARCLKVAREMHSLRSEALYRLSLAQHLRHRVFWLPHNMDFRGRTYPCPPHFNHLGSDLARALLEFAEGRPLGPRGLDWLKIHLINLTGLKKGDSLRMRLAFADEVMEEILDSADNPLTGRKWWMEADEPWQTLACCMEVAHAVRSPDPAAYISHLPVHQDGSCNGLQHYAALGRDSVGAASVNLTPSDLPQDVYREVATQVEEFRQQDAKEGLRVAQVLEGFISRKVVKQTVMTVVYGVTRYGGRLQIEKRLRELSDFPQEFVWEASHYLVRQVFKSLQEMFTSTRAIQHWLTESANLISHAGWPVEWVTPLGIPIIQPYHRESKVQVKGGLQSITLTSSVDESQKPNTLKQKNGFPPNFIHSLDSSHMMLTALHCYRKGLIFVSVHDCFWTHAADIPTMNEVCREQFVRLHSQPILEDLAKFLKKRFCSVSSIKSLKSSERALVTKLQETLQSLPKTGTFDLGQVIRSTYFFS

Regarding `C[C@@H](Oc1ccc2c(-c3ccc(F)cc3Cl)ccnc2c1)C(=O)N1CCCC(C2(C(=O)O)CC2)C1` (mixture of isomers) [Compound 194, 1-[1-[rac-(2R)-2-[[4-(2-chloro-4-fluoro-phenyl)-7-quinolyl]oxy]propanoyl]-3-piperidyl]cyclopropanecarboxylic acid], the results for the IC50 in assay [1] and in assay [2] were 20 to 100 nM and 10 to 50 nM, respectively.
As for `CC1CCCCN1C(=O)[C@@H](C)Oc1ccc2c(-c3ccc(F)cc3Cl)ccnc2c1` (mixture of isomers) [Compound 200, rac-(2R)-2-[[4-(2-chloro-4-fluoro-phenyl)-7-quinolyl]oxy]-1-(2-methyl-1-piperidyl)propan-1-one], the IC50 in assay [1] was 20 to 100 nM; in assay [2], less than 10 nM.
For the compound `C[C@@H](Oc1ccc2c(-c3c(Cl)cc(F)cc3Cl)ccnc2c1)C(=O)N1CCCC(C2(O)CC2)C1` (mixture of isomers) [Compound 203, rac-(2R)-2-[[4-(2,6-dichloro-4-fluoro-phenyl)-7-quinolyl]oxy]-143-(1-hydroxycyclopropyl)-1-piperidyl]propan-1-one], the results for the IC50 in assay [1] and in assay [2] were 100 to 1000 nM and 10 to 50 nM, respectively.
Take `Cc1ccccc1-c1ccnc2cc(O[C@H](C)C(=O)N3CCC[C@H](C(=O)O)C3)ccc12` [Compound 1, (3S)-1-[(2R)-2-[[4-(o-tolyl)-7-quinolyl]oxy]propanoyl]piperidine-3-carboxylic acid]: the IC50 in assay [1] was less than 20 nM; in assay [2] it was less than 10 nM.
Consider `Cc1cccc(C)c1-c1ccnc2cc(O[C@H](C)C(=O)N3CCC[C@H](C(=O)O)C3)ccc12` [Compound 2, (3S)-1-[(2R)-2-[[4-(2,6-dimethylphenyl)-7-quinolyl]oxy]propanoyl]piperidine-3-carboxylic acid], for which the results for the IC50 in assay [1] and in assay [2] were less than 20 nM and less than 10 nM, respectively.
The matching figures for `Cc1cccc(C)c1-c1ccnc2cc(O[C@H](C)C(=O)N3CCC[C@H](CC(=O)O)C3)ccc12` [Compound 3, 2-[(3R)-1-[(2R)-2-[[4-(2,6-dimethylphenyl)-7-quinolyl]oxy]propanoyl]-3-piperidyl]acetic acid]: less than 20 nM and less than 10 nM.
On to `CCOC(=O)[C@H]1CCCN(C(=O)[C@@H](C)Oc2ccc3c(-c4c(C)cccc4C)ccnc3c2)C1` [Compound 4, ethyl (3S)-1-[(2R)-2[[4-(2,6-dimethylphenyl)-7-quinolyl]oxy]propanoyl]piperidine-3-carboxylate], for which the IC50 in assay [1] is less than 20 nM; in assay [2], less than 10 nM.
With `Cc1cccc(C)c1-c1ccnc2cc(O[C@H](C)C(=O)N3CCC[C@@H](CC(=O)O)C3)ccc12` [Compound 5, 2-[(3S)-1-[(2R)-2-[[4-(2,6-dimethylphenyl)-7-quinolyl]oxy]propanoyl]-3-piperidyl]acetic acid], the IC50 was less than 20 nM in assay [1] and less than 10 nM in assay [2].
`C[C@@H](Oc1ccc2c(-c3ccccc3Cl)ccnc2c1)C(=O)N1CCC[C@@H](C(=O)O)C1` [Compound 7, (3R)-1-[(2R)-2-[[4-(2-chlorophenyl)-7-quinolyl]oxy]propanoyl]piperidine-3-carboxylic acid]: the values for the IC50 in assay [1] and in assay [2] were less than 20 nM and less than 10 nM, respectively.
On to `CCOC(=O)C[C@H]1CCCN(C(=O)[C@@H](C)Oc2ccc3c(-c4ccccc4C)ccnc3c2)C1` [Compound 8, ethyl 2-[(3R)-1-[(2R)-2-[[4-(o-tolyl)-7-quinolyl]oxy]propanoyl]-3-piperidyl]acetate], for which the IC50 in assay [1] is less than 20 nM; in assay [2], 50 to 500 nM.
Consider `C[C@@H](Oc1ccc2c(-c3ccccc3Cl)ccnc2c1)C(=O)N1CCC[C@H](C(=O)O)C1` [Compound 9, (3S)-1-[(2R)-2-[[4-(2-chlorophenyl)-7-quinolyl]oxy]propanoyl]piperidine-3-carboxylic acid], for which the IC50 in assay [1] was less than 20 nM; in assay [2], less than 10 nM.
On the same counts, the results for `C[C@@H](Oc1ccc2c(-c3ccc(F)cc3Cl)ccnc2c1)C(=O)N1CCC[C@H](C(=O)O)C1` [Compound 10, (3S)-1-[(2R)-2-[[4-(2-chloro-4-fluoro-phenyl)-7-quinolyl]oxy]propanoyl]piperidine-3-carboxylic acid] are less than 20 nM and 10 to 50 nM.
Regarding `C[C@@H](Oc1ccc2c(-c3ccc(F)cc3Cl)ccnc2c1)C(=O)N1CCC[C@H](c2nn[nH]n2)C1` [Compound 11, (2R)-2-[[4-(2-chloro-4-fluoro-phenyl)-7-quinolyl]oxy]-1-[(3S)-3-(2H-tetrazol-5-yl)-1-piperidyl]propan-1-one], the IC50 in assay [1] is less than 20 nM; in assay [2], 50 to 500 nM.
In the case of `C[C@@H](Oc1ccc2c(-c3ccccc3Cl)cc(F)nc2c1)C(=O)N1CCC[C@H](C(=O)O)C1` [Compound 12, (3S)-1-[(2R)-2-[[4-(2-chlorophenyl)-2-fluoro-7-quinolyl]oxy]propanoyl]piperidine-3-carboxylic acid], the IC50 was less than 20 nM in assay [1] and less than 10 nM in assay [2].
On the same counts, the results for `Cc1ccccc1-c1ccnc2cc(O[C@H](C)C(=O)N3CCC[C@H](CC(=O)O)C3)ccc12` [Compound 13, 2-[(3R)-1-[(2R)-2-[[4-(o-tolyl)-7-quinolyl]oxy]propanoyl]-3-piperidyl]acetic acid] are 20 to 100 nM and 10 to 50 nM.
`CCOC(=O)[C@H]1CCCN(C(=O)[C@@H](C)Oc2ccc3c(-c4ccccc4C)ccnc3c2)C1` [Compound 14, ethyl (3S)-1-[(2R)-2-[[4-(o-tolyl)-7-quinolyl]oxy]propanoyl]piperidine-3-carboxylate]: the results for the IC50 in assay [1] and in assay [2] were 20 to 100 nM and 50 to 500 nM, respectively.
`CCOC(=O)C[C@H]1CCCN(C(=O)[C@@H](C)Oc2ccc3c(-c4ccc(F)cc4Cl)ccnc3c2)C1` [Compound 15, ethyl 2-((R)-1-((R)-2-((4-(2-chloro-4-fluorophenyl)quinolin-7-yl)oxy)propanoyl)piperidin-3-yl)acetate]: the figures for the IC50 in assay [1] and in assay [2] were 20 to 100 nM and 50 to 500 nM, respectively.
For `C[C@@H](Oc1ccc2c(-c3ccccc3Cl)ccnc2c1)C(=O)N1CCC[C@H](CC(=O)O)C1` [Compound 16, 2-[(3R)-1-[(2R)-2-[[4-(2-chlorophenyl)-7-quinolyl]oxy]propanoyl]-3-piperidyl]acetic acid], the IC50 in assay [1] is 20 to 100 nM; in assay [2] it was 50 to 500 nM.
On the same counts, the results for `C[C@@H](Oc1ccc2c(-c3ccc(F)cc3Cl)ccnc2c1)C(=O)N1CCC[C@@H](C(=O)O)C1` [Compound 17, (3R)-1-[(2R)-2-[[4-(2-chloro-4-fluoro-phenyl)-7-quinolyl]oxy]propanoyl]piperidine-3-carboxylic acid] are 20 to 100 nM and 50 to 500 nM.
For `C[C@@H](Oc1ccc2c(-c3ccc(F)cc3Cl)ccnc2c1)C(=O)N1CCC[C@H](CC(=O)O)C1` [Compound 18, 2-((R)-1-((R)-2-((4-(2-chloro-4-fluorophenyl)quinolin-7-yl)oxy)propanoyl)piperidin-3-yl)acetic acid], the IC50 in assay [1] is 20 to 100 nM; in assay [2] it was 50 to 500 nM.
The matching figures for `C[C@@H](Oc1ccc2c(-c3ccc(F)cc3Cl)ccnc2c1)C(=O)N1CC[C@H](C(=O)O)C1` [Compound 19, (3S)-1-[(2R)-2[[4-(2-chloro-4-fluoro-phenyl)-7-quinolyl]oxy]propanoyl]pyrrolidine-3-carboxylic acid]: 20 to 100 nM and 50 to 500 nM.
With `C[C@@H](Oc1ccc2c(-c3ccc(F)cc3Cl)ccnc2c1)C(=O)N1CCCCC1` [Compound 20, (2R)-2[[4-(2-chloro-4-fluoro-phenyl)-7-quinolyl]oxy]-1-(1-piperidyl)propan-1-one], the IC50 was 20 to 100 nM in assay [1] and 10 to 50 nM in assay [2].
As for `Cc1ccccc1-c1cc(Cl)nc2cc(O[C@H](C)C(=O)N3CCC[C@H](CC(=O)O)C3)ccc12` [Compound 21, 2-[(3R)-1-[(2R)-2-[[2-chloro-4-(o-tolyl)-7-quinolyl]oxy]propanoyl]-3-piperidyl]acetic acid], the IC50 is 20 to 100 nM in assay [1] and 500 to 5000 nM in assay [2].
`C[C@@H](Oc1ccc2c(-c3ccc(F)cc3Cl)ccnc2c1)C(=O)N1CCC[C@@H](CC(=O)O)C1` [Compound 22, 2-[(3S)-1-[(2R)-2-[[4-(2-chloro-4-fluoro-phenyl)-7-quinolyl]oxy]propanoyl]-3-piperidyl]acetic acid]: the IC50 is 20 to 100 nM in assay [1] and 50 to 500 nM in assay [2].
The matching figures for `C[C@@H](Oc1ccc2c(-c3ccc(F)cc3Cl)ccnc2c1)C(=O)N1CCC(C(=O)O)CC1` [Compound 24, 1-[(2R)-2-[[4-(2-chloro-4-fluoro-phenyl)-7-quinolyl]oxy]propanoyl]piperidine-4-carboxylic acid]: 20 to 100 nM and 50 to 500 nM.
